Reference: patent publication US20230065562A1, “DUAL CONTROLS FOR THERAPEUTIC CELL ACTIVATION OR ELIMINATION” (Bellicum Pharmaceuticals, Inc., priority 2015, published 2023)

Columns and labels:
293T cells = assay: SeAP reporter assay: iC9 without FRB-Caspase-9 (controls); type: cell-based; conditions: iC9 with control vector or FRB without caspase fusion
Excerpt: (FIGS. 39 and 40). iC9 (FKBPv12-Caspase-9) was cotransfected with a control vector expressing only an epitope tag (FIG. 39) or a vector containing FRB without caspase fusion, but instead with a short, irrelevant tag (FIG. 40).
FIG. 39—FRB-Caspase-9 is required for a rapamycin-induced cell death switch. 293T cells were transfected with SRα-SeAP (pBP0046), pS-NLS-E and pSH1-FKBPv12-Caspase9 (pBP0044).
FIG. 40—Caspase-9 fusion with FRB is required for a rapamycin-induced cell death switch. 293T cells were transfected with SRα-SeAP (pBP0046), pSH1-FRBL-VP16 (pBP0731) (4) and pSH1-FKBPv12-Caspase9 (pBP0044). […] Loss of reporter activity is a proxy for the loss of cell viability. Reporter activity is expressed as a percentage of the average of 8 wells containing no drug. Drug-containing wells were assayed in triplicate wells.

[1] = tested on: T cells expressing ΔC9 alone (pBP1501); assay: T cell killing assay with caspase 3/7 green reagent monitored by IncuCyte, negative control ΔC9; type: cell-based, human; conditions: increasing doses, FIG. 108B
Excerpt: To determine the functionality of these switches in activated T cells, retroviral supernatants were produced and transduced into PBMCs activated from 3 separate donors.

[2] = tested on: iRmC9 T cells (pBP1327, GFP-Fluc); assay: In vivo apoptotic activation in NSG mice, iRmC9 T cells (IVIS imaging, spleen FACS); parameters: species or system mouse; conditions: 5 mg/kg rimiducid or 10 mg/kg rapamycin i.p.
Protocol: PBMCs from donor 676 were activated and co-transduced with one of the off-switches and GFP-Fluc retroviruses. Eleven days after transduction, cells were analyzed for transduction efficiency with GFP and anti-CD3/anti-CD19 antibodies (FIG. 109A). […] The CD19^+ MFI for the different T cell populations were: iC9=15.07, iRC9=14.38, and iRmC9=13.39. The cells were collected, counted, washed, and resuspended at 1×10^6 cells in 100 μl PBS for each tail vein mouse injection (Table 10) (time=−18 hr). […] IVIS imaging was performed at −14, 0, 5, 24 and 29 hours. Mice were sacrificed and spleens were collected for FACS analysis with hCD3, hCD19 and mCD45 antibodies. […] The higher percentage of remaining iRmC9 T cells observed may be due to an artifact of normalizing the no drug group.
PBMCs from donor 676 were activated and co-transduced with retroviruses encoding the pBP0220, 1310, 1327 vectors and the GFP-Fluc plasmid. (FIG. 109A) Eleven days post transduction, the cells were analyzed for CD19 and GFP transduction efficiency prior to injection into mice. (FIGS. 109B & C) NSG mice were injected i.v. with 107 T cells co-transduced with GFP-Fluc per mouse and suicide drugs were injected i.p. the next day. Bioluminescence of cells was assessed at −14, 0, 5, 24, and 29 hours post-drug administration. (FIG. 109D) At 29-h post-drug treatment, mice were euthanized and spleens were collected for flow cytometry analysis with antibodies to hCD3, […], and mCD45

[3] = tested on: SK-N-SH neuroblastoma cells; assay: Trans-well assay, HLA class I on tumor cells; type: cell-based; conditions: antigen-independent, FIG. 118B
Excerpt: FIG. 118: (A) Trans-well assay set-up. (B) Cytokines secreted by transduced T cells in the top well upregulate HLA class I on the surface of SK-N-SH neuroblastoma cells in an antigen-independent, but iMC- and rimiducid-dependent manner.

[4] = tested on: iCasp9M.IRES.GFPhigh-transduced CTLs in LCL xenograft; assay: SCID mouse-human xenograft model, elimination of iCasp9M-transduced CTLs; type: in vivo, NOD/SCID mice; conditions: single dose of CID (50 μg AP20187 i.p.), 3 days after
Protocol: Non-obese diabetic severe combined immunodeficient (NOD/SCID) mice, 6 to 8 weeks of age, were irradiated (250 rad) and injected subcutaneously in the right flank with 10×10^6 to 15×10^6 LCLs resuspended in Matrigel (BD Bioscience). Two weeks later mice bearing tumors that were approximately 0.5 cm in diameter were injected into the tail vein with a 1:1 mixture of nontransduced and iCasp9.I.GFPhigh-transduced EBV CTLs (total 15×10^6). At 4 to 6 hours prior and 3 days after CTL infusion, mice were injected intraperitoneally with recombinant hIL-2 (2000 U; Proleukin; Chiron). […] By FACS analysis, the number of GFP^+ cells within the gated CD3^+ population was evaluated. […]
The function of iCasp9M also was evaluated in transduced EBV-CTLs in vivo. […] Three days after CID/carrier administration, tumors were analyzed for human CD3^+/GFP^+ cells. […]
The function of iCasp9M in vivo, was assayed. […] On day 3 after CTL administration, mice received either CID (50 µg AP20187; (black diamonds, n=6) or carrier only (black squares, n=5) and on day 6 the presence of human CD3^+/GFP^+ T cells in the tumors was analyzed. Human CD3^+ T cells isolated from the tumors of a control group of mice that received only nontransduced CTLs (15×10^6 CTLs; n=4) were used as a negative control for the analysis of CD3^+/GFP^+ T cells within the tumors.

Row | Structure (SMILES) | cell death (loss of SeAP reporter) without FRB-Caspase-9 (293T cells) | activity of negative control ΔC9 alone (pBP1501) in T cells [1] | iRmC9 T cells remained in splenocytes (normalized to no drug group) ([2]; spleen FACS, FIG. 109D) | removal of iRmC9 T cells (IVIS imaging) ([2]; NSG mice, FIGS. 109B & C) | upregulation of HLA class I on the surface of SK-N-SH cells by cytokines of transduced T cells [3] | reduction in the number of human CD3+/GFP+ T cells versus carrier ([4]; listed as CID) | reduction in the number of human CD3+/GFP+ T cells versus carrier ([4]; listed as dimerizer)
1 | CC[C@H](C(=O)N1CCCC[C@H]1C(=O)O[C@H](CCc1ccc(OC)c(OC)c1)c1cccc(OCC(=O)NCCNC(=O)COc2cccc([C@@H](CCc3ccc(OC)c(OC)c3)OC(=O)[C@@H]3CCCCN3C(=O)[C@@H](CC)c3cc(OC)c(OC)c(OC)c3)c2)c1)c1cc(OC)c(OC)c(OC)c1 [rimiducid] | effectively permitted homodimerization and induction of Caspase-9 | not active | ~50% | induced significant removal | rimiducid-dependent | – | –
2 | CC[C@H](C(=O)N1CCCC[C@H]1C(=O)O[C@H](CCc1ccc(OC)c(OC)c1)c1cccc(OCC(=O)NCC(CNC(=O)COc2cccc([C@@H](CCc3ccc(OC)c(OC)c3)OC(=O)[C@@H]3CCCCN3C(=O)[C@@H](CC)c3cc(OC)c(OC)c(OC)c3)c2)CN(C)C)c1)c1cc(OC)c(OC)c(OC)c1 [AP20187] | – | – | – | – | – | > 99% | more than 99%
